Patent publication US20140243415A1, “COMPOUNDS INHIBITING GALECTIN-1 EXPRESSION, CANCER CELL PROLIFERATION, INVASION, AND TUMORIGENESIS” (ONCOETHIX SA, priority 2011, published 2014)

Legend:
cultured fibroblasts = test: Antiproliferative effect in fibroblasts; type: cell-based
endothelial cell = endothelial cell proliferation, migration, chick embryo chorioallantoic membrane assays; cited from earlier work
SQ20B cells [1] = test: In vitro growth inhibition assay; type: cell-based, human; conditions: SQ20B, OTX-008 added to semaphorin-3A or lactose
Protocol: (§1) FIG. 5. Modulation of the galectin-1/semaphorin-3A/neuropilin system in SQ20B cells. A—Effects of galectin-1 (Gall), semaphorin-3A (Sema3A), lactose, with or without four different concentrations of OTX-008 on SQ20B growth at day 6. Embedded figure: Proliferation assay of SQ20B and SQ-shGAL1. B—In vitro matrigel invasion assay of SQ20B exposed to […] galectin-1, 1 μg/ml semaphorin-3A, 200 ng/ml lactose or 10 μM UO126 with or without 3 μM OTX-008. Embedded figure: In vitro matrigel invasion assay of SQ20B and SQ-shGAL1. Invasion was quantified after 48 h by counting the average number of invaded cells.
For proliferation assay, cells were seeded in 96-well tissue culture plates at a density of 1.5×10^3 cells/well. MTT assay was conducted daily to determine the number of viable cells in untreated control and treated group. Growth inhibition curves were plotted as a percentage of cells for each experimental condition.
(§2) Galectin-1 may form extracellular lattices counteracting the inhibitory properties of semaphorin-3A on neuropilin-1, eventually leading to the modulation of the vascular endothelial growth factor (VEGFR) and platelet derived growth factor (PDGFR) receptors, fibronectin, and laminin activity SQ20B cells expressed significant mRNA and protein levels of semaphorin-3A and neuropilin-1, PDGFRa&(, VEGF A-D, and VEGFR1-3 (Supplementary FIG. 2A). Thus, SQ20B cells were selected to evaluate the effects of OTX-008 on galectin-1/semaphorin-3A interactions. No difference between SQ20B cells growing in plastic or fibronectin- and laminin-coated plates. […] Galectin-1 and semaphorin-3A induced invasion was inhibited by OTX-008 mimicking the effects of lactose in this model.

SQ20B cells [2] = test: Matrigel invasion assay; type: cell-based, human
Protocol: as §1
8 μm membranes were coated with Matrigel (50 μg). The inserts were placed within a 24-well chamber containing 0.6 ml of RPMI 1640 medium with 20% fetal bovine serum as chemoattractant. 10^5 cells were seeded into the inserts suspended in 0.3 ml of serum-free RPMI. After incubation for 48 h at 37° C., the upper surface of the filter was scraped to remove non-invasive cells. Invasive cells were fixed and stained with a Diff Quik detection Kit (Dade Behring, Paris, France). For quantification, the average number of invading cells per field was assessed by counting 9 random fields under a light microscope (400×).
as §2

chk1, chk2, and cdc25C = test: chk1, chk2 and cdc25C phosphorylation in SQ20B; type: cell-based, human; conditions: OTX-008-treated SQ20B cells
SQ20B cells [3] = test: Cell cycle analysis by flow cytometry; type: cell-based, human; conditions: 72 h exposure
Protocol: Cell cycle analysis was assessed by flow cytometry. In brief, cells were seeded onto […] flasks and treated with various concentrations of OTX-008. After 72 h exposure, adherent and non-adherent cells were recovered, washed with PBS, fixed in 70% ethanol and stored at −20° C. until use. Cells were rehydrated in PBS, incubated for 30 minutes at 37° C. with 200 μg/ml RNAse A, and for 20 minutes at +4° C. with 40 μg/ml propidium iodide in the dark. The cell cycle distribution was determined with a flow cytometer (FACSCalibur and Cell Quest Pro software, BD Biosciences, Le-Pont-de-Claix, France).
To study the mechanism of OTX-008-induced inhibition of cell proliferation, the effect of OTX-008 on cell cycle in SQ20B cells was examined (FIG. 5B). […] Activation of cdc2 (cdk1) by de-phosphorylation of tyrosine 15 is required for G2/M transition. […] Thus, the level of phosphorylated cdc2 on tyrosine 15 and wee1 on serine 642 in SQ20B cell line were exposed to 3 μM OTX-008 for 72 h. […] In order to determine the potential relationship between the inhibition of MAPK signaling pathways and the effects on cell cycle by OTX-008, SQ20B cells were pretreated for 2 h with the ERK1/2 inhibitor UO126 followed by the OTX-008 addition for 72 hours.

p-AKT = test: Western blot of signaling in SQ20B cells; type: cell-based, human; conditions: 3 μM OTX-008, 10 min to 24 h
Protocol: (§3) FIG. 3. Effects of OTX-008 on galectin-1 expression and localization. A—Western Blot of galectin-1 on SQ20B cells treated with 3 μM OTX-008 for 24 h, 48 h and 72 h. B and C—Immunofluorescence of galectin-1 on SQ20B cells treated with 3 μM OTX-008 for 24 and 48 h. B—OTX-008 treatment decreases galectin-1 immunostaining in SQ20B cells. C—Galectin-1 translocates into the nucleus after OTX-008 exposure. D—Western Blot of p-AKTser473, AKT, p-S6, p-ERK1/2, ERK and p-PKCα in SQ20B cells treated with 3 μM OTX-008 for 10 min, 1 h, 2 h, 5 h and 24 h.
(§4) Cells were lysed in buffer containing 50 mM HEPES (pH 7.6), 150 mM NaCl, 1% Triton X-100, 2 mM sodium vanadate, 100 mM NaF, and 0.4 mg/ml phenylmethylsulfonyl fluoride. Equal amounts of protein (30 μg/lane) were subjected to SDS-PAGE and transferred to nitrocellulose membranes. Membranes were blocked with 5% milk in 0.05% Tween 20/phosphate-buffered saline and then incubated with the primary antibody overnight. Membranes were then washed and incubated with the secondary antibody conjugated to horseradish peroxidase. Bands were visualized by using the enhanced chemiluminescence Western blotting detection system. Densitometric analysis was performed under conditions that yielded a linear response. The following antibodies were used: anti-p-cdc2 (tyr15), anti-p-wee1 (ser642), anti-p-p44/42 MAPK (thr202/tyr204), anti-p44/42, anti-p-AKT (ser473), anti-AKT, anti-p-S6 (ser235/236) (Cell Signaling, Saint Quentin Yvelines, France), anti-p-PKCα (ser657) (BD Biosciences, Le-Pont-de-Claix, France) and anti-galectin-1 (Abcam, Cambridge, Mass., USA). All antibodies were used at a 1:1000 dilution.
(§5) Intracytoplasmic galectin-1 was previously shown to stabilize intracellular GTP-Ras conformation, facilitating Ras downstream signaling. Signaling events following OTX-008 exposure in SQ20B cells displaying no EGFR, K-Ras, and B-Raf mutation were investigated (FIG. 5A).

p-ERK1/2 = test: Western blot of signaling in SQ20B cells; type: cell-based, human; conditions: 3 μM OTX-008, 10 min to 24 h
Protocol: as §3, §4, §5

p-S6 = test: Western blot of signaling in SQ20B cells; type: cell-based, human; conditions: 3 μM OTX-008, 10 min to 24 h
Protocol: as §3, §4, §5

## CN(C)CCNC(=O)COc1c2cccc1Cc1cccc(c1OCC(=O)NCCN(C)C)Cc1cccc(c1OCC(=O)NCCN(C)C)Cc1cccc(c1OCC(=O)NCCN(C)C)C2 [OTX-008]
Cultured fibroblasts
  antiproliferative effect: no antiproliferative effect
Endothelial cell
  angiogenesis inhibition in vitro: potent angiogenesis inhibitor
SQ20B cells [1]
  antiproliferative effects in combination with semaphorin-3A or lactose: enhanced the antiproliferative effects
SQ20B cells [2]; 48 h, 1 g/ml galectin-1, 1 μg/ml semaphorin-3A, 10 μM UO126, 3 μM OTX-008
  invasion of SQ20B cells, agent alone: inhibits proliferation and invasion
SQ20B cells [2]; SQ20B, 3 μM OTX-008, 48 h
  galectin-1 and semaphorin-3A induced invasion: inhibited
chk1, chk2, and cdc25C
  chk1, chk2, and cdc25C phosphorylation levels: Mild to no changes
SQ20B cells [3]
  cell cycle distribution: dose-dependent accumulation of cells in G2/M phase
p-AKT
  AKT ser473 phosphorylation: transient activation of AKT^s473 followed by a complete and sustained inhibition of p-AKT
p-ERK1/2
  p-ERK1/2 activity: progressively but sustainably inhibited p-ERK1/2 activity
p-S6
  p-S6: complete and sustained inhibition
